This data set can be described thus: gradient 5% acetonitrile 3 min, to 50% in 2 min, to 85% in 15 min, held 3 min, 100 µL/min. Conditions: column: Zorbax Extend-C18 2.1 x 50 mm; eluents: water / acetonitrile, 0.1% formic acid. An outline of the steps: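 Retention times of pure standards were taken from adduct peaks that were selected by computer and manually inspected. Over 3 months, mixtures of ~100 molecules were run by HPLC–quadrupole time-of-flight mass spectrometry in positive and negative ionization mode. The Zorbax Extend-C18 column (2.1 × 50 mm, 1.8 μm) ran at 100 μL/min in water and acetonitrile, each containing 0.1% formic acid, with 40 μL dead volume and 900 μL dwell volume.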
The compound `CCS(=O)(=O)N1C[C@@H](COC)[C@H](c2ccccn2)C1` displayed an RP-LC retention time of 585 s. For `CCOc1ccc(Cc2nc(-c3cccc(-c4ccnn4C)c3)no2)cc1OCC` the value was 1090 s; for `CCOC(=O)C1CCN(c2ccc3nnc(CCc4nc(-c5ccc(F)cc5)no4)n3n2)CC1`, 966 s; for `CC1(C)C(=O)Nc2ccc(S(=O)(=O)N3CCC(c4noc(-c5ccccc5)n4)C3)cc21` (stereo not given), 883 s. For `O=C(Cc1csc(SCC(=O)c2cccs2)n1)Nc1ccc(F)c(Cl)c1` the value was 923 s; for `O=S(=O)(c1ccccc1F)N1CCC(Nc2cccnc2)C1` (stereo not given), 716 s; for `Cc1cc(N2CCOCC2)nc(N2CCN(C(=O)CCC3CCCCC3)CC2)n1`, 714 s. For `Cc1cccc(N2CCN(Cc3nc(-c4ccc(N5CCSCC5)nc4)no3)CC2)c1` the value was 1000 s; for `CCn1cc(CN2C[C@@H](COC)[C@H](c3nc(C)no3)C2)c2ccccc21`, 676 s. As to `O=C(NC1CC1)C1CCN(c2cncnc2N2CCCCC2)CC1`, the RP-LC retention time is 607 s. For `CC(C)(C)c1noc(-c2ccc(-n3cnc(C(=O)NCc4ccccc4F)c3)nc2)n1` the value was 1050 s; for `CC(C)CCN1CCC(N2CCN(S(=O)(=O)c3ccccc3Cl)CC2)C1=O` (stereo not given), 668 s.

`Cc1cc(SCC(N)=O)nc2ccccc12`: the RP-LC retention time was 664 s. For `COCCN1C(=O)c2ccccc2C(C(=O)N2CCN(c3ccccn3)CC2)C1c1ccc(F)cc1` (stereo not given) the value was 619 s. The value for `Cc1cccc(NC(=O)/C=C/c2ccc([N+](=O)[O-])cc2)c1` was 878 s. In turn, `Cc1nc(C)c(-c2nnc(NC(=O)c3ccc(F)cc3F)o2)s1` yielded an RP-LC retention time of 663 s. For `CCCS(=O)(=O)N1CCC(OCCOCc2ccccc2)CC1` the value was 937 s.

Turning to `c1ccc(Nc2c(-c3ccc(N4CCOCC4)cc3)nc3ccccn23)cc1`, the RP-LC retention time was found to be 670 s. In the case of `CN1C(=O)COc2cc(-c3noc(C(=O)NC4CC4)n3)ccc21`, the RP-LC retention time is 718 s.

`O=C(NCc1ccc(F)cc1F)c1ccc2ncnc(N3CCCCC3)c2c1` registered an RP-LC retention time of 680 s. In turn, `CNC(=O)N1CCCC(c2cccc(C(=O)NCc3cccc(C(F)(F)F)c3)c2)C1` (stereo not given) registered an RP-LC retention time of 850 s. For `COc1ccc(-c2nc3ncccn3c2Nc2ccc3c(c2)OCCO3)cc1` the value was 674 s. For `COc1ccc2c(c1)-c1nc(NC(=O)c3cc(Cl)ccc3OC)sc1CC2` the value was 1300 s. The value for `CCCCN1CCC(CCC(=O)c2cc(Cl)c(N)cc2OC)CC1` was 726 s; that for `Cc1ccc(NC(=O)N2CCCC2c2cc(C)on2)c(C)c1` (stereo not given) was 823 s; that for `NC(=O)c1c(N)c(C(=O)c2cccc([N+](=O)[O-])c2)n2ccccc12` was 649 s.

The compound `CCOc1ccccc1NC(=O)N1CCCC1c1nc(-c2ccc(F)cc2F)no1` (stereo not given) had an RP-LC retention time of 1100 s. For `COc1ccc(-c2cc3nn(CC(=O)Nc4ccccc4OC)c(=O)n3c(C)n2)cc1`, the RP-LC retention time came to 736 s. The value for `COc1cccc(N2CCN(c3ccc(S(=O)(=O)C(C)C)nn3)CC2)c1` was 847 s. The value for `Cc1nc2cc3c(cc2n1CC(=O)Nc1ccc2c(c1)OCCO2)OCCO3` was 632 s. On to `COc1cccc(NC(=O)N2CCC3(C2)C(=O)N(C)c2ccccc23)c1` (stereo not given), for which the RP-LC retention time worked out at 760 s.

The compound `Cc1cc(OC(C)C(=O)N[C@@H](C)C(=O)O)c2c3c(c(=O)oc2c1)CCCC3` (stereo not given in full) displayed an RP-LC retention time of 767 s. For `COc1ccc(NC(=O)Cn2nc(N3CCCC(C)C3)c3ccccc3c2=O)c(OC)c1` (stereo not given) the value was 1100 s; for `CCOCCCNC(=O)c1c(-c2cccc(Br)c2)noc1C`, 869 s.

For `CCc1nc(-c2csc(S(=O)(=O)N3CCC(C(=O)NC4CC4)CC3)c2)no1`, the RP-LC retention time came to 766 s.

For `CCc1csc(-c2ccc(N3CCN(C(=O)C4COc5ccccc5O4)CC3)nc2)n1` (stereo not given), the RP-LC retention time is 1030 s. The value for `O=C(O)Cc1sc(Nc2cccc3ccccc23)nc1-c1ccc(F)cc1` was 918 s; that for `COc1cc(-c2noc(Cn3c(=O)n(-c4ccccc4)c(=O)c4sccc43)n2)cc(OC)c1OC` was 868 s.

The compound `CC1(C(=O)NCc2cccc(Cl)c2)Oc2cccnc2NC1=O` (stereo not given) showed an RP-LC retention time of 723 s. For `CCN1C(=O)COc2cc(-c3noc(C(=O)NC4CCCCCC4)n3)ccc21` the value was 1050 s.

`Cc1cc(C2CCCN2C(=O)Nc2ccc(F)c(Cl)c2)no1` (stereo not given) came in with an RP-LC retention time of 808 s. The value for `Cc1nc2c(c(Nc3cc(C(=O)O)ccc3C)n1)CCC2` was 584 s.

`COc1ccccc1N1CCN(CCNS(=O)(=O)c2ccc(F)c(C)c2)CC1` showed an RP-LC retention time of 608 s. `CC(=O)N1CCc2cc(N3CC(C(=O)NCc4ccccc4)CC3=O)ccc21` (stereo not given) gave an RP-LC retention time of 671 s. Consider `CC(C)(C)NC(=O)Cc1cccn1-c1ccc(Cl)cc1`, for which the RP-LC retention time came out at 994 s. For `CCOC(=O)c1ccc2nc(C(F)(F)F)nc(NCCc3ccc(OC)c(OC)c3)c2c1`, the RP-LC retention time came to 1140 s. For `COc1cc(NC(=O)N2CCC(CN3CC(C)CC(C)C3)CC2)cc(OC)c1OC` (stereo not given), the RP-LC retention time worked out at 625 s.

Turning to `O=C(NCc1csc(-c2ccccc2)n1)C1CCN(S(=O)(=O)c2ccc(F)cc2)CC1`, the RP-LC retention time was 910 s. For `O=c1c(NCCC2=CCCCC2)nc2ccncc2n1Cc1ccccc1` the value was 818 s. The value for `CCc1nc(-n2cccc2)sc1C(=O)Nc1cccc(F)c1` was 1170 s; that for `COc1ccc(Cl)cc1NC(=O)N1C[C@@H](F)C[C@H]1C(=O)N1CCc2ccccc2C1` was 933 s; that for `CCCNC(=O)C1CCN(c2cnc(N3CCN(CC)CC3)nc2)CC1` was 565 s.

As for `CCNC(=O)NC1CCN(c2nc3ccccc3n(C)c2=O)CC1`, the RP-LC retention time is 676 s. For `COC(=O)c1c(C)[nH]c(C(=O)N2CCCC(C(=O)NCCC(C)C)C2)c1C` (stereo not given) the value was 730 s; for `CCOC(=O)Cn1c(C2CC(=O)N(Cc3ccc(F)cc3)C2)nc2ccccc21` (stereo not given), 764 s; for `CCOc1ccc(CNC(=O)c2cc(NC(C)=O)cc3nc(C)ccc23)cc1`, 620 s.

In the case of `Cc1ccc(C)c(N2CCN(C(=O)c3ccc4c(c3)NC(=O)C3CCCCN43)CC2)c1` (stereo not given), the RP-LC retention time was 1050 s. For `O=C(NC1CCCCCC1)C1CCN(Cc2cc3ccccc3n2Cc2cccc(Cl)c2)CC1` the value was 882 s; for `Cn1cc(-c2cc3n(n2)CCCN3C(=O)CCC(=O)NC2CCCCCC2)c2ccccc21`, 869 s; for `O=[N+]([O-])c1ccc2c(c1)S(=O)c1ccccc1-2` (stereo not given), 782 s.

`Cc1ccc(S(=O)(=O)c2cnc(N3CCC(C(N)=O)(N4CCCCC4)CC3)nc2N)cc1C` displayed an RP-LC retention time of 654 s. As for `O=C(COc1ccccc1F)Nc1nnc(-c2cc(Cl)sc2Cl)o1`, the RP-LC retention time amounted to 867 s.

`O=C(NC1CC1)c1ccc(-c2ccc(N3CCCCC3)nc2)cc1` registered an RP-LC retention time of 613 s. The value for `CCc1nnc(-c2cn(CC(=O)NCc3ccc(SC)cc3)c3ccccc23)o1` was 880 s; that for `O=C(c1nc(Cn2nc(-c3ccc(F)cc3)ccc2=O)no1)N1CCC2(CC1)OCCO2` was 783 s; that for `O=C(C1CCN(S(=O)(=O)c2cc(-c3noc(C4CCC4)n3)cs2)CC1)N1CCCC1` was 911 s. The value for `O=S(=O)(Cc1ccccc1)N1CCCCC1c1nc(-c2cccnc2)n[nH]1` (stereo not given) was 701 s; that for `CCOc1ccc(NC(=O)c2cc3ccccc3cc2O)cc1` was 1130 s. For `CCOC(=O)c1c(C)oc2ncnc(Nc3ccc(OC)c(Cl)c3)c12` the value was 1270 s; for `Cc1cccn2cc(C(=O)N3CCN(c4ccc(Cl)cc4)CC3)nc12`, 946 s; for `Cc1cnn(Cc2nc(-c3ccc(NC(=O)C(C)(C)C)cc3)oc2C)c1`, 863 s. With `Cc1cccc(CC(=O)N2C[C@@H]3C[C@H]2C[C@@H]3NC(=O)c2cccs2)c1`, the RP-LC retention time worked out at 778 s.

Consider `CNC(=O)N1CCCN(C2=NS(=O)(=O)C(c3ccc(C)c(C)c3)=C2C)CC1`, for which the RP-LC retention time was found to be 711 s. The value for `Cc1noc(-c2nn(C)c3c2CN(C(=O)C2CCCO2)CC3)n1` (stereo not given) was 600 s; that for `O=C(Nc1ccccc1Br)C1CCCN(C(=O)c2ccccc2F)C1` (stereo not given) was 860 s. For `Cc1cccc(N(C)C(=O)Cn2nc3n(c2=O)CCCC3)c1` the value was 669 s; for `Cn1cc(-c2cc3n(n2)CCCN3C(=O)CCC(=O)NCc2ccccc2)c2ccccc21`, 804 s. For `CCCc1noc(-c2ccc(=O)n(CC(=O)Nc3cc(C)cc(C)c3)c2)n1` the value was 902 s. As for `Cc1ccc(-c2cn3c(CC(=O)NCc4ccccc4)csc3n2)cc1C`, the RP-LC retention time turned out to be 826 s.

As to `Cc1c(-c2ccnc(N3CCCCC3)n2)cnc2nc(-c3ccccc3)nn12`, the RP-LC retention time is 1180 s.

Values taken from the METLIN SMRT retention time set (Domingo-Almenara et al. 2019).
